Measurements as given in US8604048B2, “Pyridocarbazole type compounds and applications thereof” (Centre National de la Recherche Scientifique, priority 2009, dated 2013).

Legend:
NCI-H460 cells = experiment: Cell growth test (MTT), NCI-H460; format: cell-based; details: Homo sapiens; NCI-H460, MTT test after 48 h; read-out: IC50 (concentration necessary to inhibit 50% of cell growth)
Protocol: (§1) The cell growth tests are carried out in transparent 96-well microplates (Greiner) after having seeded 100 μl/well of a cell solution having 2·10^5 cells/ml to 5·10^5 cells/ml (depending on the cell lines). After incubating for 24 h at 37° C. with 5% CO2, the culture medium is removed and replaced with solutions of the molecule to be tested at various concentrations. The cells are incubated with these molecules for an additional 48 h at 37° C. with 5% CO2. After elimination of the medium, the cells are washed with blank RPMI (Gibco, Invitrogen) then incubated with 3-(4,5-dimethylthiazol-2-yl)-2,5-diphenyltetrazolium bromide or MTT (0.5 mg/ml final concentration) for 4 h at 37° C. with 5% CO2. MTT (Sigma Aldrich) makes it possible to estimate the viability of the cells by measuring the activity of a mitochondrial enzyme. Indeed, in living cells, mitochondrial dehydrogenases are capable of cleaving the tetrazolium ring, thus leading to the formation of formazan crystals that are insoluble in an aqueous medium. These crystals are dissolved with the addition of a solubilizing solution (isopropanol, 10% Triton X100, 0.1 N HCl). After stirring, the absorbance is measured at 570 nm using the FLUOstar OPTIMA microplate reader. […]
(§2) The viability of the cells was evaluated using an MTT test after 48 h of exposure with various concentrations of molecules (from 100 μM to 0.001 μM). […]

MES-SA DX5 cells = experiment: Cell growth test (MTT), MES-SA DX5; format: cell-based; details: Homo sapiens; MES-SA DX5 (multi-drug resistant, P-glycoprotein), MTT test after 48 h; read-out: IC50 (concentration necessary to inhibit 50% of cell growth)
Protocol: as §1, §2

[1] = system: microtubules of HeLa cells; experiment: Resistance of microtubules to nocodazole-induced depolymerization; format: cell-based, Human; details: 2 h with compound then 30 minutes nocodazole
Protocol: 6. a step of analysis of the effect of the compound to be tested on the dynamics of the microtubule network. For this, HeLa cells are incubated for 2 h with the compound to be tested, then optionally treated with 10 μM nocodazole for 30 minutes.
FIG. 4 represents the effect of nocodazole on the microtubules of the HeLa cells treated with the Compound 1 of the invention. The HeLa cells are incubated with paclitaxel or without, with the Compound 1 of the invention for 2 h, then exposed for 30 minutes to nocodazole. The amount of tubulin in the cells treated with the Compound 1 of the invention is measured with a microplate reader, then reported as a percentage of the amount of tubulin measured in the wells containing the cells treated with paclitaxel;
(§3) In the living cell, microtubules are dynamic structures, which oscillate between assembling and disassembling phases. Various types of tests may be carried out in order to assess the stabilizing effect of the molecules on the microtubule network. Thus, the binding of paclitaxel to the microtubules, or the binding of stabilizing proteins such as STOP proteins (Bosc et al., 2003) may protect the microtubule network from a depolymerization induced by an incubation of the cells at 4° C. […]

[2] = system: microtubules of HeLa cells; experiment: Stability of microtubules at low temperature (4° C.); format: cell-based, Human; details: 2 h with compound then 30 minutes at 4° C.
Protocol: FIG. 3 represents the effect of the Compound 1 of the invention on the stability of microtubules at low temperature. The HeLa cells are incubated with paclitaxel or without, with the Compound 1 of the invention, for 2 h, then exposed for 30 minutes at 4° C. The amount of tubulin in the cells treated with the Compound 1 of the invention is measured with a microplate reader, then reported as a percentage of the amount of tubulin measured in the wells containing the cells treated with paclitaxel (100%);
as §3, with “C. Furthermore, molecules capable of slowing down the dynamics of the microtubules may be identified by analyzing the resistance of cell microtubules to a depolymerization induced by nocodazole. In the absence of a stabilizing compound, the microtubules depolymerize in the presence of nocodazole (FIG. 2).” for “C.”

## Cc1c2cc[nH]c(=O)c2c(C)c2c1[nH]c1ccc(OC(=O)c3ccccc3)cc12 [Compound 1, 9-benzoyloxy-5,11-dimethyl-2H,6H-pyrido[4,3-b]carbazol-1-one]
NCI-H460 cells
  IC50: 6.65 µM
MES-SA DX5 cells
  IC50: 27.4 µM
[1]
  Protection of microtubules from nocodazole-induced depolymerization: prevents, in a dose-dependent manner
[2]
  Protection of microtubules from cold-induced depolymerization: not able to protect the microtubules
